From patent publication US12162840B2, “Herbicidal compositions” (SYNGENTA PARTICIPATIONS AG, priority 2018, dated 2024)

Tested on: warm season plant species
Assay: B2 Post-emergence efficacy Test 2, warm season plant species
Type: in vivo
Conditions: 15 days after application, 0-100 scale, 0=no damage, 100=total kill; for Herbicidal activity, ABUTH: Abutilon theophrasti; for Herbicidal activity, AMARE: Amaranthus retroflexus; for Herbicidal activity, BIDPI: Bidens pilosa; for Herbicidal activity, BRAPL: Brachiaria plantaginea; for Herbicidal activity, DIGSA: Digitaria sanguinalis; for Herbicidal activity, ECHCG: Echinochloa crus galli; for Herbicidal activity, ELEIN: Eleisine indica; for Herbicidal activity, EPHHL: Euphorbia hetrophylla; for Herbicidal activity, GLXMA: Glycine max; for Herbicidal activity, IPOHE: Ipomoea hederacea; for Herbicidal activity, ORYSA: Orysa sativa; for Herbicidal activity, PANMI: Panicum miliaceum; for Herbicidal activity, SETFA: Setaria faberi; for Herbicidal activity, SIDSP: Sida spinosa; for Herbicidal activity, SORVU: Sorghum bicolour; for Herbicidal activity, XANST: Xanthium strumarium; for Herbicidal activity, ZEAMX: Zea mays
Procedure: Seeds of a variety of test species (see Table B1) were sown in standard soil in pots. After cultivation for 12 days (post-emergence) under controlled conditions in a glasshouse (at 24/18° C. or 20/16° C., at day/night; 16 hours light; 65% humidity), the plants were sprayed with an aqueous spray solution derived from the formulation of the technical active ingredient dissolved in IF50 (see Table B2 for composition) and adjuvant (Genapol XO80) was added to the spray solution at a rate of 0.2% v/v. [table] [table] After application, the test plants were grown in a glasshouse under controlled conditions (as above) and watered twice daily. Herbicidal activity was evaluated 15 days after application on a 0-100 scale. The results, where 0=no damage to test plant and 100=total kill of test plant are shown below in Tables 6 to 9.

Cc1nn(C)c(=O)c(-c2c(F)ccc(Cl)c2CCc2ccc(C#N)cc2)c1O [Compound 1.024]
20: Herbicidal activity, DIGSA (30 g/Ha) | Herbicidal activity, ORYSA (250 g/Ha) | Herbicidal activity, SETFA (15 g/Ha) | Herbicidal activity, ZEAMX (60 g/Ha)
90: Herbicidal activity, ABUTH (15 g/Ha) | Herbicidal activity, ABUTH (30 g/Ha) | Herbicidal activity, AMARE (30 g/Ha) | Herbicidal activity, AMARE (60 g/Ha) | Herbicidal activity, BIDPI (500 g/Ha) | Herbicidal activity, BRAPL (500 g/Ha) | Herbicidal activity, DIGSA (250 g/Ha) | Herbicidal activity, DIGSA (500 g/Ha) | Herbicidal activity, ECHCG (125 g/Ha) | Herbicidal activity, ECHCG (250 g/Ha) | Herbicidal activity, EPHHL (30 g/Ha) | Herbicidal activity, EPHHL (60 g/Ha) | Herbicidal activity, EPHHL (125 g/Ha) | Herbicidal activity, GLXMA (60 g/Ha) | Herbicidal activity, GLXMA (125 g/Ha) | Herbicidal activity, PANMI (125 g/Ha) | Herbicidal activity, PANMI (250 g/Ha) | Herbicidal activity, SETFA (125 g/Ha) | Herbicidal activity, SETFA (250 g/Ha) | Herbicidal activity, SIDSP (30 g/Ha) | Herbicidal activity, SIDSP (60 g/Ha) | Herbicidal activity, SORVU (250 g/Ha)
0: Herbicidal activity, DIGSA (15 g/Ha) | Herbicidal activity, ELEIN (15 g/Ha) | Herbicidal activity, ORYSA (15 g/Ha) | Herbicidal activity, ORYSA (30 g/Ha) | Herbicidal activity, ORYSA (60 g/Ha) | Herbicidal activity, ORYSA (125 g/Ha) | Herbicidal activity, PANMI (15 g/Ha) | Herbicidal activity, SORVU (15 g/Ha) | Herbicidal activity, ZEAMX (15 g/Ha)
40: Herbicidal activity, DIGSA (60 g/Ha) | Herbicidal activity, ELEIN (30 g/Ha) | Herbicidal activity, ELEIN (60 g/Ha) | Herbicidal activity, ORYSA (500 g/Ha) | Herbicidal activity, ZEAMX (125 g/Ha)
10: Herbicidal activity, SORVU (30 g/Ha) | Herbicidal activity, ZEAMX (30 g/Ha)
70: Herbicidal activity, BRAPL (60 g/Ha) | Herbicidal activity, BRAPL (125 g/Ha) | Herbicidal activity, BRAPL (250 g/Ha) | Herbicidal activity, ECHCG (15 g/Ha) | Herbicidal activity, EPHHL (15 g/Ha) | Herbicidal activity, GLXMA (15 g/Ha) | Herbicidal activity, PANMI (30 g/Ha) | Herbicidal activity, SETFA (30 g/Ha) | Herbicidal activity, SORVU (60 g/Ha) | Herbicidal activity, ZEAMX (250 g/Ha)
30: Herbicidal activity, BRAPL (15 g/Ha)
100: Herbicidal activity, ABUTH (60 g/Ha) | Herbicidal activity, ABUTH (125 g/Ha) | Herbicidal activity, ABUTH (250 g/Ha) | Herbicidal activity, ABUTH (500 g/Ha) | Herbicidal activity, AMARE (125 g/Ha) | Herbicidal activity, AMARE (250 g/Ha) | Herbicidal activity, AMARE (500 g/Ha) | Herbicidal activity, ECHCG (500 g/Ha) | Herbicidal activity, EPHHL (250 g/Ha) | Herbicidal activity, EPHHL (500 g/Ha) | Herbicidal activity, GLXMA (250 g/Ha) | Herbicidal activity, GLXMA (500 g/Ha) | Herbicidal activity, IPOHE (30 g/Ha) | Herbicidal activity, IPOHE (60 g/Ha) | Herbicidal activity, IPOHE (125 g/Ha) | Herbicidal activity, IPOHE (250 g/Ha) | Herbicidal activity, IPOHE (500 g/Ha) | Herbicidal activity, PANMI (500 g/Ha) | Herbicidal activity, SETFA (500 g/Ha) | Herbicidal activity, SIDSP (125 g/Ha) | Herbicidal activity, SIDSP (250 g/Ha) | Herbicidal activity, SIDSP (500 g/Ha) | Herbicidal activity, SORVU (500 g/Ha) | Herbicidal activity, XANST (500 g/Ha) | Herbicidal activity, ZEAMX (500 g/Ha)
80: Herbicidal activity, AMARE (15 g/Ha) | Herbicidal activity, BIDPI (15 g/Ha) | Herbicidal activity, BIDPI (30 g/Ha) | Herbicidal activity, BIDPI (60 g/Ha) | Herbicidal activity, BIDPI (125 g/Ha) | Herbicidal activity, BIDPI (250 g/Ha) | Herbicidal activity, DIGSA (125 g/Ha) | Herbicidal activity, ECHCG (30 g/Ha) | Herbicidal activity, ECHCG (60 g/Ha) | Herbicidal activity, ELEIN (250 g/Ha) | Herbicidal activity, ELEIN (500 g/Ha) | Herbicidal activity, GLXMA (30 g/Ha) | Herbicidal activity, PANMI (60 g/Ha) | Herbicidal activity, SETFA (60 g/Ha) | Herbicidal activity, SIDSP (15 g/Ha) | Herbicidal activity, SORVU (125 g/Ha) | Herbicidal activity, XANST (60 g/Ha) | Herbicidal activity, XANST (125 g/Ha)
60: Herbicidal activity, BRAPL (30 g/Ha) | Herbicidal activity, ELEIN (125 g/Ha)
